Patent US20250195714A1, “DEVICES AND METHODS OF TREATING WOUNDS” (University of Massachusetts, priority 2022, published 2025)
Entries after “also recorded” stand apart in the source; their conditions may differ.

Assays:
skin graft donor sites = experiment: Human patients, skin-graft donor site treated with TXA embedded dressings without a drain; format: in vivo
Description: Human patients were treated with TXA embedded dressings. A 50 cm^2 partial thickness wound was generated with a dermatome, thereby creating the skin-graft donor site. […] Non-adherent sterile dressings (TIELLE™) were contacted with the solution and placed directly on the donor site dressing.
The wounds were covered with a semipermeable film ([…]™) without a drain. Normally a dermal drain is placed through the film into contact with the wound with the intention of collecting fluid. A total of 300 ml in 5 days is normally collected (60 ml per day=[…]).

[1] = system: rhytidoplasty (face lift); settings: local TXA irrigation; first twenty-four hours after rhytidoplasty; cited from earlier work
scald injuries = experiment: Scald injuries treated with similar TXA dressings; format: in vivo, Human
Description: In particular, a child with a scald was treated with TIELLE™ containing TXA and the dressing was removed after ten days.

[2] = system: keratinocyte and fibroblast cell cultures; settings: short exposure to even high concentrations of topical TXA; cited from earlier work
chronic ulcers = experiment: Chronic ulcers treated with similar TXA dressings; format: in vivo, Human

In the case of `NC[C@H]1CC[C@H](C(=O)O)CC1` [TXA, tranexamic acid], the amount of exudate (skin graft donor sites; 50 cm^2 partial thickness skin-graft donor site, one to two grams TXA in 10 ml normal saline on TIELLE dressing, TEGADERM film, no drain) is reported as “reducing significantly the amount of exudate; also recorded: greatly reduce exudate”, the bleeding (skin graft donor sites; skin graft donor sites, topical TXA) is reported as “little bleeding” and the “adverse effect of TXA” value (skin graft donor sites; skin-graft donor site, topical TXA dressing) is reported as “no adverse effect”. For the same molecule, the “re-epithelialization of the wound” value (skin graft donor sites; skin-graft donor site, at removal of original dressing (12-14 days, 8-16 days)) was “re-epithelialized skin surface without the need for placement of a further dressing; also recorded: In most cases the wound was fully epithelialized; also recorded: rapid and complete or near complete re-epithelialization”, the bleeding [1] was “decrease bleeding” and the drainage [1] was “reduce drainage”. The reepithelization (scald injuries) was “near complete reepithelization”, the tolerance in vitro [2] was “well tolerated” and the reepithelization (chronic ulcers) was “near complete reepithelization”.
